Data published in patent publication US20250223268A1, “4-Methylsulfonylbenzamide Compound, Preparation Method, Herbicidal Composition And Use” (Jiangsu Flag Chemical Industry Co., Ltd., priority 2022, published 2025).

What was measured:
Type in all cases: in vivo
[1] = system: Oryza sativa subsp. japonica; assay: Greenhouse herbicidal activity and crop safety comparison (Test Example 2); conditions: Rate 150 g/ha
How it was run: (§1)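 Fresh weight inhibition, banded into grades A to E (E <20%), was rated 14-21 days after foliar spraying of 3-6 leaf plants, or 14-30 days after a soil spray applied 24 h post-sowing.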

Leptochloa chinensis [2] = assay: as above; conditions: Rate 150 g/ha
How it was run: as §1

[3] = system: Oryza sativa subsp. indica; assay: as above; conditions: Rate 150 g/ha
How it was run: as §1

Echinochloa crusgalli [4] = assay: as above; conditions: Rate 150 g/ha
How it was run: as §1

Cyperus iria = assay: Greenhouse herbicidal activity assay, post-emergence; conditions: Post-emergence test, rate 150 g a.i./hm^2; grade by fresh weight inhibition rate
How it was run: (§2)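 Scores reflect fresh weight inhibition assessed 14-21 days after treatment, with grade A meaning ≥80% to 100% and grade E meaning <20%. Plants, raised in nutrient-soil pots inside a growth chamber, were sprayed on the foliage at the 3-6 leaf stage.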

Leptochloa chinensis [5] = assay: as above; conditions: Post-emergence test, rate 150 g a.i./hm^2; grade by fresh weight inhibition rate
How it was run: as §2

Eclipta prostrata = assay: as above; conditions: Post-emergence test, rate 150 g a.i./hm^2; grade by fresh weight inhibition rate
How it was run: as §2

Digitaria sanguinalis = assay: as above; conditions: Post-emergence test, rate 150 g a.i./hm^2; grade by fresh weight inhibition rate
How it was run: as §2

Echinochloa crusgalli [6] = assay: as above; conditions: Post-emergence test, rate 150 g a.i./hm^2; grade by fresh weight inhibition rate
How it was run: as §2

SMILES | Oryza sativa subsp. japonica, grading of fresh weight inhibition rate (crop safety) [1] | Leptochloa chinensis, control efficacy grading (fresh weight inhibition rate) (Leptochloa chinensis [2]) | Oryza sativa subsp. indica, grading of fresh weight inhibition rate (crop safety) [3] | Echinochloa crusgalli, control efficacy grading (fresh weight inhibition rate) (Echinochloa crusgalli [4]) | Control efficacy grade, Cyperus iria (Cyperus iria) | Control efficacy grade, Leptochloa chinensis (Leptochloa chinensis [5]) | Control efficacy grade, Eclipta prostrata (Eclipta prostrata) | Control efficacy grade, Digitaria sanguinalis (Digitaria sanguinalis) | Control efficacy grade, Echinochloa crusgalli (Echinochloa crusgalli [6])
CCC(C)S(=O)(=O)c1c(S(C)(=O)=O)ccc(C(=O)Nc2nnc(C(C)C)o2)c1Cl (racemic) [Compound 3-522] | E (Fresh weight inhibition rate<20%) | A (Fresh weight inhibition rate≥80% to 100%) | E (Fresh weight inhibition rate<20%) | A (Fresh weight inhibition rate≥80% to 100%) | A (Fresh weight inhibition rate≥80% to 100%) | A (Fresh weight inhibition rate≥80% to 100%) | A (Fresh weight inhibition rate≥80% to 100%) | C (Fresh weight inhibition rate≥40% to <60%) | A (Fresh weight inhibition rate≥80% to 100%)
CCC(C)S(=O)(=O)c1c(S(C)(=O)=O)ccc(C(=O)Nc2nnc(C3CC3)o2)c1Cl (racemic) [Compound 3-638] | E (Fresh weight inhibition rate<20%) | A (Fresh weight inhibition rate≥80% to 100%) | E (Fresh weight inhibition rate<20%) | A (Fresh weight inhibition rate≥80% to 100%) | A (Fresh weight inhibition rate≥80% to 100%) | A (Fresh weight inhibition rate≥80% to 100%) | A (Fresh weight inhibition rate≥80% to 100%) | B (Fresh weight inhibition rate≥260% to <80%) | A (Fresh weight inhibition rate≥80% to 100%)
CS(=O)(=O)c1ccc(C(=O)Nc2nnc(C3CC3)o2)c(Cl)c1S(=O)(=O)C1CC1 [Compound 3-655] | E (Fresh weight inhibition rate<20%) | A (Fresh weight inhibition rate≥80% to 100%) | E (Fresh weight inhibition rate<20%) | A (Fresh weight inhibition rate≥80% to 100%) | A (Fresh weight inhibition rate≥80% to 100%) | A (Fresh weight inhibition rate≥80% to 100%) | A (Fresh weight inhibition rate≥80% to 100%) | A (Fresh weight inhibition rate≥80% to 100%) | A (Fresh weight inhibition rate≥80% to 100%)
Cc1nnc(NC(=O)c2ccc(S(C)(=O)=O)c(S(=O)(=O)CC(F)(F)F)c2Cl)o1 [Compound 3-101] | E (Fresh weight inhibition rate<20%) | A (Fresh weight inhibition rate≥80% to 100%) | E (Fresh weight inhibition rate<20%) | A (Fresh weight inhibition rate≥80% to 100%) | A (Fresh weight inhibition rate≥80% to 100%) | A (Fresh weight inhibition rate≥80% to 100%) | A (Fresh weight inhibition rate≥80% to 100%) | A (Fresh weight inhibition rate≥80% to 100%) | A (Fresh weight inhibition rate≥80% to 100%)
